Results taken from the NIST ThermoML archive (doi:10.1016/j.jct.2007.05.011).

Tests used:
[1] = xn = mol fraction of the nth substance listed; settings: 101 kPa, Liquid, x1 = 1; for mass density: Vibrating tube method
[2] = 101 kPa, Liquid; for mass density: Vibrating tube method

O [water] + NCCO.O=CO
[1]
Settings | mass density [kg/m3] | speed of sound [m/s]
290.65 K | 998.68 | 1474.7
295.65 K | 997.65 | 1489.9
300.65 K | 996.37 | 1503.4
305.65 K | 994.86 | 1515.1
310.65 K | 993.15 | 1525
313.15 K | – | 1529.3
315.65 K | 991.24 | 1533.2
318.15 K | – | 1536.6
320.65 K | 989.15 | 1539.6
323.15 K | 988.04 | 1542.1

CCO [ethanol] + NCCO.O=CO
[1]
Settings | mass density [kg/m3] | speed of sound [m/s]
288.15 K | 794.444 | 1178.2
290.65 K | 792.305 | 1169.1
293.15 K | 790.158 | 1160.3
295.65 K | 788.027 | 1151.7
298.15 K | 785.89 | 1143.1
300.65 K | 783.729 | 1134.6
303.15 K | 781.591 | 1126.2
305.65 K | 779.402 | 1117.8
308.15 K | 777.238 | 1109.4
310.65 K | 775.055 | 1101
313.15 K | 772.846 | 1092.7
315.65 K | 770.625 | 1084.3
318.15 K | 768.482 | 1075.9
320.65 K | 766.198 | 1067.5
323.15 K | 764.019 | 1058.8

CO [methanol]
[2]
Settings | mass density [kg/m3] | speed of sound [m/s]
288.15 K | 795.775 | 1134.5
290.65 K | 793.495 | 1126.2
293.15 K | 791.149 | 1118
295.65 K | 788.811 | 1109.8
298.15 K | 786.463 | 1101.6
300.65 K | 784.102 | 1093.4
303.15 K | 781.764 | 1085.5
305.65 K | 779.385 | 1077.3
308.15 K | 777.026 | 1069.2
310.65 K | 774.659 | 1061.1
313.15 K | 772.261 | 1052.9
315.65 K | 769.86 | 1044.9
318.15 K | 767.541 | 1036.7
320.65 K | 765.074 | 1028.6
323.15 K | 762.738 | 1020.5

NCCO.O=CO [2-hydroxyethylammonium formate]
[2]
Settings | mass density [kg/m3] | speed of sound [m/s]
288.15 K | 1183.57 | 1733.9
290.65 K | 1181.81 | 1727.4
293.15 K | 1180.04 | 1721.3
295.65 K | 1178.27 | 1715.1
298.15 K | 1176.49 | 1709
300.65 K | 1174.71 | 1702.9
303.15 K | 1172.94 | 1696.8
305.65 K | 1171.16 | 1690.8
308.15 K | 1169.39 | 1684.8
310.65 K | 1167.62 | 1678.7
313.15 K | 1165.84 | 1672.7
315.65 K | 1164.06 | 1666.7
318.15 K | 1162.29 | 1660.8
320.65 K | 1160.51 | 1654.8
323.15 K | 1158.73 | 1648.9

CO [methanol] + NCCO.O=CO
[1]
Settings | mass density [kg/m3] | speed of sound [m/s]
288.15 K | 795.775 | 1134.5
290.65 K | 793.495 | 1126.2
293.15 K | 791.149 | 1118
295.65 K | 788.811 | 1109.8
298.15 K | 786.463 | 1101.6
300.65 K | 784.102 | 1093.4
303.15 K | 781.764 | 1085.5
305.65 K | 779.385 | 1077.3
308.15 K | 777.026 | 1069.2
310.65 K | 774.659 | 1061.1
313.15 K | 772.261 | 1052.9
315.65 K | 769.86 | 1044.9
318.15 K | 767.541 | 1036.7
320.65 K | 765.074 | 1028.6
323.15 K | 762.738 | 1020.5

CCO [ethanol]
[2]
Settings | mass density [kg/m3] | speed of sound [m/s]
288.15 K | 794.444 | 1178.2
290.65 K | 792.305 | 1169.1
293.15 K | 790.158 | 1160.3
295.65 K | 788.027 | 1151.7
298.15 K | 785.89 | 1143.1
300.65 K | 783.729 | 1134.6
303.15 K | 781.591 | 1126.2
305.65 K | 779.402 | 1117.8
308.15 K | 777.238 | 1109.4
310.65 K | 775.055 | 1101
313.15 K | 772.846 | 1092.7
315.65 K | 770.625 | 1084.3
318.15 K | 768.482 | 1075.9
320.65 K | 766.198 | 1067.5
323.15 K | 764.019 | 1058.8
